Assay results taken from PMC4931907 (eLife, 2016).

Experiments:
acetyl NF-κBK310 = experiment: Acetylation of overexpressed NF-κB p65 in HEK293T cells, Western blot; format: cell-based; details: HEK293T transfected with p300 and NF-κB p65, 24 hr
From the text: Figure 2.

CBP = biological target: T1, CBP (Homo sapiens, UniProt Q92793); experiment: In vitro HAT assay with recombinant CBP, histones and 14C acetyl-CoA; format: biochemical; details: read-out: IC50, CBP-mediated acetyltransferase activity
T1 construct: purchased Enzo Life Sciences
Description: (§1) To determine whether salicylate inhibits p300 and other acetyltransferases, we used in vitro acetylation assays with purified histones and a recombinant p300 catalytic domain.
(§2) Figure 1. Salicylate inhibits CBP/p300 in vitro. (A) Recombinant p300, CBP, GCN5, or PCAF and histones were incubated with ^14C-labeled acetyl-CoA with or without sodium salicylate, separated by SDS-PAGE, analyzed by autoradiography, and quantified with Image J software. Acetylation levels are relative to those in untreated controls. (B) Thermal stability assay for sodium salicylate binding to the p300 HAT domain. Tm, melting temperature. […] Histone acetylation was measured with several concentrations of acetyl-CoA (C) or histone (D) in the presence or absence of sodium salicylate. […] Acetylation of an H4(3–14) peptide was monitored using direct microfluidic mobility shift analysis as previously described ([Montgomery et al., 2014]; [Fanslau et al., 2010]). […]
(§3) Recombinant HAT ([…]), either p300, CBP, PCAF, or GCN5 (Enzo Life Sciences), and 10 µg of histones (Sigma) were incubated with sodium salicylate (Sigma) in reaction buffer (50 mM HEPES, pH 8.0, 10% glycerol, 1 mM) at 30°C for 30 min and then with 0.1 mCi of ^14C acetyl-CoA at 30°C for 60 min. Reactions were stopped by adding 6x sample buffer and analyzed by SDS-PAGE. […]

PCAF = biological target: T2, PCAF (Homo sapiens, UniProt Q92831); experiment: In vitro HAT assay with recombinant PCAF, histones and 14C acetyl-CoA; format: biochemical
T2 construct: purchased Enzo Life Sciences
Description: as §1, §2, §3

GCN5 = biological target: T3, GCN5 (Homo sapiens, UniProt Q92830); experiment: In vitro HAT assay with recombinant GCN5, histones and 14C acetyl-CoA; format: biochemical
T3 construct: purchased Enzo Life Sciences
Description: as §1, §2, §3

[1] = biological target: T4, p300 HAT domain (residues 1279–1666, Tyr1467Phe) (Homo sapiens, UniProt Q09472, Y1467F); experiment: Thermal stability assay (SYPRO orange); format: binding; details: p300/acetyl-CoA without salicylate 48.6°C
T4 construct: 6-His (N, cleaved yes); made in house; host or cells: E. coli BL21 (DE3)
T4 sequence (Q09472 1279-1666 Y1467F): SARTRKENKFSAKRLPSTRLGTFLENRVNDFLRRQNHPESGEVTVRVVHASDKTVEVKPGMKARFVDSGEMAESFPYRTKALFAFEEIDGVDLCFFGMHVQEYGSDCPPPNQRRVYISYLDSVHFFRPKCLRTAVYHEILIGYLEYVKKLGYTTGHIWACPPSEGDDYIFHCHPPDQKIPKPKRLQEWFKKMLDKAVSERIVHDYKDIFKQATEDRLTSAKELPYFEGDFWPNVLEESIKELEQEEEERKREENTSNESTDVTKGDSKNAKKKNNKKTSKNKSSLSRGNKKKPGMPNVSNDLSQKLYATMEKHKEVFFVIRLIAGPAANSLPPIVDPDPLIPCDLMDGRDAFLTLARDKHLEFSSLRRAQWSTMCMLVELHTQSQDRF
Description: To confirm that salicylate binds to p300, we used thermal stability assays. A p300 HAT domain construct (residues 1279–1666) bearing an inactivating Tyr1467Phe mutation to facilitate purification of homogeneously hypoacetylated p300 was expressed and purified with an N-terminal 6-His tag from E. coli cells. The protein was further purified by chromatography and incubated with increasing concentrations of sodium salicylate for 30 min and with SYPRO orange dye (Invitrogen). Thermal melt curves were obtained by heating the protein from 20–95°C and monitoring fluorescence at 590 nm.
A thermal stability assay was used to assess the binding of salicylate to the p300 HAT domain. A p300 HAT domain construct (residues 1279–1666) bearing an inactivating Tyr1467Phe mutation to facilitate purification of homogeneously hypoacetyalted p300 was cloned into a pET-DUET vector with an N-terminal 6-His tag and expressed in BL21 (DE3) E. coli cells. […]
The final concentration of p300 was 2 μM in reaction buffer (0.1 M HEPES, pH 7.5, 150 mM NaCl, and 5 mM -mercaptoethanol). […] Thermal melt curves were obtained by heating the protein from 20–95°C and monitoring fluorescence at 590 nm with a 7900HT Fast Real Time PCR System (Applied Biosystems). […]

T3 sequence (Q92830 whole entry, species assumed): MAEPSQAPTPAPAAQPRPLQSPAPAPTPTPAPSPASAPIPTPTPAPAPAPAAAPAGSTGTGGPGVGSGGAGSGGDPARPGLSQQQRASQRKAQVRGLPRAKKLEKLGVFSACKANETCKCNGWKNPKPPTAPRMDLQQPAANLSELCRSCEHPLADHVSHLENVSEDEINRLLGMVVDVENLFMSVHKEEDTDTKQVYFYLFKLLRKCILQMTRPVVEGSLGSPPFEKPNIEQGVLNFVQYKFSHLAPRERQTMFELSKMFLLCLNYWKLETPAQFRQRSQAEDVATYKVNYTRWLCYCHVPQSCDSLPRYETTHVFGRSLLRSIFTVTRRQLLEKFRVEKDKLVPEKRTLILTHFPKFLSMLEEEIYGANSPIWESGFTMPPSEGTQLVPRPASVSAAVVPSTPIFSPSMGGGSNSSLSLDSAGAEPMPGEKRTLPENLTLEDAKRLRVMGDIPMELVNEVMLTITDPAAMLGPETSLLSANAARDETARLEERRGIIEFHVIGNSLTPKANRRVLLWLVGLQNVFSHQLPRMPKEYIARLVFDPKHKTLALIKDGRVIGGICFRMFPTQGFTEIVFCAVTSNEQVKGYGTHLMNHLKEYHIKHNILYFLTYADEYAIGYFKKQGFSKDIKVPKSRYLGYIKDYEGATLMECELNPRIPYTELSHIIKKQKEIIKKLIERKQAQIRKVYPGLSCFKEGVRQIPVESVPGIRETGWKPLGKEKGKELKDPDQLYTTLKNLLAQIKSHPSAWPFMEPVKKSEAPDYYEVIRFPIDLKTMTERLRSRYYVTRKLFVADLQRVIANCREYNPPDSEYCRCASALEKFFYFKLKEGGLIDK
T2 sequence (Q92831 whole entry, species assumed): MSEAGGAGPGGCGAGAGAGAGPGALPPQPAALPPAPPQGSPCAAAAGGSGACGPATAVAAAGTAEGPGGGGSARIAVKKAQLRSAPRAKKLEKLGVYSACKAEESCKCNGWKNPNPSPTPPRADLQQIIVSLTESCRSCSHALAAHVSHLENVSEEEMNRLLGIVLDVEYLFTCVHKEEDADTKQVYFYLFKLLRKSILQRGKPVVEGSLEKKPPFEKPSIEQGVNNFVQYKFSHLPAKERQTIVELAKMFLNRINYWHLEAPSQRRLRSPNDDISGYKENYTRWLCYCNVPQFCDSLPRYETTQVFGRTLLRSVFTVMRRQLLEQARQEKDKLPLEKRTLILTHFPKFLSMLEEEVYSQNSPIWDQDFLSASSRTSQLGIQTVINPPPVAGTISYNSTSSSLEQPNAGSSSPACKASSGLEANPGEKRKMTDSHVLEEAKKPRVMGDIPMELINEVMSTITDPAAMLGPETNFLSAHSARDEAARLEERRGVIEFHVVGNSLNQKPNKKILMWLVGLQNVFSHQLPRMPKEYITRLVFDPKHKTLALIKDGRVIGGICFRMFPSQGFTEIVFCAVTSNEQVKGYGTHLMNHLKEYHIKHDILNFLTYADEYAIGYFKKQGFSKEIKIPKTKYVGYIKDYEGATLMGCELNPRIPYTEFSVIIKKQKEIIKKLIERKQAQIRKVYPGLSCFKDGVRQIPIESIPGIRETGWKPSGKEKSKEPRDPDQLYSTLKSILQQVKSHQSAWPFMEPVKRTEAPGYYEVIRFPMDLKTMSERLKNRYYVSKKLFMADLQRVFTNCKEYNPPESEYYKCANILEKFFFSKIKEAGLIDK
T1 sequence (Q92793 whole entry): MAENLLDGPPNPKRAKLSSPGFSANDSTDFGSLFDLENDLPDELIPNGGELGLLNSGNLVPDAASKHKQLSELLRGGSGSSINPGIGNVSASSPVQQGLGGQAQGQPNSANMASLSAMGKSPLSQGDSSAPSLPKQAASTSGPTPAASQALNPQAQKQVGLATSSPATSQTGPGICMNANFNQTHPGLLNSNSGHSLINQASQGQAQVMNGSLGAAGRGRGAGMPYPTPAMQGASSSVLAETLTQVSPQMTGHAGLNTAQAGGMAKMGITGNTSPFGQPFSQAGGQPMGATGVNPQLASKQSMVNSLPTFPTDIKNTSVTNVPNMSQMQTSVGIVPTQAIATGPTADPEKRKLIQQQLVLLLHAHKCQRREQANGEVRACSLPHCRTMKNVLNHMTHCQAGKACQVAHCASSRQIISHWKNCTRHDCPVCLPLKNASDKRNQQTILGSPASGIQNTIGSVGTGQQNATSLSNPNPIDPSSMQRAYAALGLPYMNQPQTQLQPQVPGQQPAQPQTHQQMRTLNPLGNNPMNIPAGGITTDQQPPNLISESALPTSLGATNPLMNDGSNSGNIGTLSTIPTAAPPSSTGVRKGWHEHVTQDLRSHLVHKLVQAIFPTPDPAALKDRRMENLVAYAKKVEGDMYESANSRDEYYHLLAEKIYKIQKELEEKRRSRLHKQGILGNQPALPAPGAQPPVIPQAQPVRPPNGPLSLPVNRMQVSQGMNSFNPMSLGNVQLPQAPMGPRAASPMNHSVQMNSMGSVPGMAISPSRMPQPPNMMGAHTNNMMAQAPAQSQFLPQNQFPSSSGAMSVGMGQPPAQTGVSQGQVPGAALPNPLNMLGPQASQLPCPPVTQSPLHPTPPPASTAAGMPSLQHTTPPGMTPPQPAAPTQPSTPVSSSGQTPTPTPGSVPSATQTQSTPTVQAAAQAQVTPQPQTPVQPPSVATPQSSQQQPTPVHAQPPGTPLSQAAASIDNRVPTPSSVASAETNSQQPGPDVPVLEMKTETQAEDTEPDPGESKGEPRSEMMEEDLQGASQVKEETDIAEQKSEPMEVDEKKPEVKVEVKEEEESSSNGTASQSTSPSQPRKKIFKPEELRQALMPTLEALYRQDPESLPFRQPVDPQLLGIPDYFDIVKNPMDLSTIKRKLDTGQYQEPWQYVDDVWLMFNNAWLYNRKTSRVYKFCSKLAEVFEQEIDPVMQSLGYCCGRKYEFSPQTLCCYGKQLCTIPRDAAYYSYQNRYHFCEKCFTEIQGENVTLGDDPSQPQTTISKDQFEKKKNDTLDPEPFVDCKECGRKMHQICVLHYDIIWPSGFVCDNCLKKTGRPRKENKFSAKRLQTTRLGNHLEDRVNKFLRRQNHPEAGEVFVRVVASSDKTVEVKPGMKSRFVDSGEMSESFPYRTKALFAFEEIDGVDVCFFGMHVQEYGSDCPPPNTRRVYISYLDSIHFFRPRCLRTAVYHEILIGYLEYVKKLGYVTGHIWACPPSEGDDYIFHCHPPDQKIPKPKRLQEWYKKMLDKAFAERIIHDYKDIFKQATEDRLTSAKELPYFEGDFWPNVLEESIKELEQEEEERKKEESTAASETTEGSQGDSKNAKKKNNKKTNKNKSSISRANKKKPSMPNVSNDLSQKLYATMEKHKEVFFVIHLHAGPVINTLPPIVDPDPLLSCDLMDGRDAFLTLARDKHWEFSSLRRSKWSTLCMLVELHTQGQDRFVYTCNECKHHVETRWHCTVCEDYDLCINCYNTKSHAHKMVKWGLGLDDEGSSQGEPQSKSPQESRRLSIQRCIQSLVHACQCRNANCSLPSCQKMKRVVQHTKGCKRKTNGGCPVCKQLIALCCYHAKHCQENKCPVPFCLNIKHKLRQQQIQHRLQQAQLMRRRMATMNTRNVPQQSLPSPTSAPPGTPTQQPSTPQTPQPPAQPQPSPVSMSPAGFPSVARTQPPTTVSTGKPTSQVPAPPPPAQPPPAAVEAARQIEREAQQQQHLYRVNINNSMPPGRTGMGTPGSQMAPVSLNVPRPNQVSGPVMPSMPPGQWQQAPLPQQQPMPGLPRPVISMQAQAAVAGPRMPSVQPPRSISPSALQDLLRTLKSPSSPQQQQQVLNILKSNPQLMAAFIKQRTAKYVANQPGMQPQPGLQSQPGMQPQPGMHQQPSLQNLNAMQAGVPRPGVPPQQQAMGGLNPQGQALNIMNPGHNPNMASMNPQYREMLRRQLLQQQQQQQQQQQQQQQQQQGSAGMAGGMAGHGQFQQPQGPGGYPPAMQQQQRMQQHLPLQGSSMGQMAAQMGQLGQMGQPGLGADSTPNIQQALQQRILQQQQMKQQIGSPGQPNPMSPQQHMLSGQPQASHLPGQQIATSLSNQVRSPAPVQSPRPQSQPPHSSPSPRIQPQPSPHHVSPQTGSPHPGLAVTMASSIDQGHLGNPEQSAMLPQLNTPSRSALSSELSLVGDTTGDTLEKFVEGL

With `O=C(O)c1ccccc1O` [salicylate, salicylic acid] the “Acetylation of NF-κB p65 K310” value (acetyl NF-κBK310) was “decreased acetylation”, the IC50 (CBP) was 5.7 mM and the “Inhibition of PCAF acetyltransferase” value (PCAF) was “did not detectably inhibit”. The “Inhibition of GCN5 acetyltransferase” value (GCN5) was “did not detectably inhibit”, the “Thermal unfolding temperature of p300 HAT domain” value ([1]; 10 mM salicylate) was 46.1 °C and the “Thermal unfolding temperature of p300 HAT domain” value ([1]; 25 mM salicylate) was 40.8 °C.
